Test results reported in patent US12589087B2, “Enantiomer selective action on neurotransmission” (The Board of Trustees of the Leland Stanford Junior …, priority 2021, dated 2026).

Columns and labels:
[1] = target: T1, mGluR2 (Homo sapiens, UniProt Q14416); test: radioligand binding assay, recombinant Chem-1 cells
T1 construct: host or cells: Chem-1 cells
Procedure: (§1) Nonspecific AMPA, kainate and NMDA binding assays were performed by Eurofins Discovery (Cerep) using rat cerebral cortex membranes and radiolabeled [^3H]AMPA, [^3H]kainic acid and [^3H]CGP 39653, respectively. All compounds were tested at a single concentration of 100 uM in triplicate. mGluR1, mGluR2, mGluR5 and GABAB binding assays were performed by Eurofins Discovery. mGluR1 assay was performed using rat cerebellum membranes and radiolabeled [^3H]quisqalic acid. mGluR2 assay was performed using recombinant Chem-1 cells and [^3H]LY341495. mGluR5 and GABAB binding assays were performed using recombinant CHO-K1 cells and […], respectively. All compounds were tested at a single concentration of 100 uM in triplicate.
(§2) All receptor assays were performed exactly as described in Example 1. Functional assays of all GABAA, NMDA (GluN2A-GluN2D) and AMPA (GluA2) receptor subunits were performed by SB Drug Discovery as a part of their CNS discovery panel using FLIPR technology. All compounds were tested at 7 concentrations in triplicate and EC50/IC50 was determined where applicable. Functional GABAB assay was performed by Eurofins Discovery (Cerep) using Ca^2+-dependent fluorimetry in RBL cells expressing human GABAB (B1/B2) receptor. All compounds were tested at a single concentration of 100 uM in triplicate. […]

[2] = test system: NMDA nonspecific; test: radioligand binding assay, cerebral cortex membranes, [3H]CGP 39653; details: NMDA nonspec, rat; 100 μM
Procedure: as §1, §2

[3] = test system: mGluR1; test: radioligand binding assay, cerebellum membranes; details: mGluR1, rat; 100 μM
Procedure: as §1, §2

[4] = test system: kainate nonspecific; test: radioligand binding assay, cerebral cortex membranes, [3H]kainic acid; details: kainate nonspec, rat; 100 μM
Procedure: as §1, §2

[5] = target: T2, human glutamine synthetase (Homo sapiens, UniProt P15104); test: Catalysis of 2MeGlu C5-amidation by glutamine synthetase; format: biochemical
T2 construct: purchased Abcam ab222354
T2 sequence (P15104 whole entry): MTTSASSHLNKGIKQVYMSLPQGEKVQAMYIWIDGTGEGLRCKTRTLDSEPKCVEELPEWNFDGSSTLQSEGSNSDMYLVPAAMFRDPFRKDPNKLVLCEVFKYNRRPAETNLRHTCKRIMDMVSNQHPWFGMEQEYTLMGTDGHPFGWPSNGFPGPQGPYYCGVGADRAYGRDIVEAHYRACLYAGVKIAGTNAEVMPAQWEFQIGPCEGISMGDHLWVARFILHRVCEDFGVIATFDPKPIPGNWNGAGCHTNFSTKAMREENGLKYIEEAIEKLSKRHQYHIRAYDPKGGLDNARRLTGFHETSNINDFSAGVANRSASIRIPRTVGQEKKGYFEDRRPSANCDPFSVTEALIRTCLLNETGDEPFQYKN
Procedure: The procedure was adapted from an existing protocol. To a reaction mixture in a 1.5 mL microcentrifuge tube containing 10 mM substrate, 10 mM ATP, 20 mM MgCl2, 40 mM NH4Cl, 25 mM 2-mercaptoethanol in 100 mM imidazole-HCl buffer pH 7.0, recombinant human glutamine synthetase (final concentration: 5 ng/mL) was added. The tubes were incubated in a preheated thermomixer at 37° C. and shaken at 600 rpm (30 s on, 30 s off). 5 μL aliquots were collected in triplicate every 5 min and immediately diluted with 195 μL of cold 60% ACN containing 10 μM Glu-d5 and Gln-d5 as internal standards in a 96 well plate. After collecting all samples, 200 μL of ACN was added to all wells and the plate was shaken at 1000 rpm for 5 min at room temperature, and then stored at −80° C. until analysis.

[6] = target: T3, GABAB (B1b/B2) (Homo sapiens, UniProt Q9UBS5); test: radioligand binding assay
T3 construct: host or cells: CHO-K1
T3 sequence (Q9UBS5 1-844 isoform Q9UBS5-2): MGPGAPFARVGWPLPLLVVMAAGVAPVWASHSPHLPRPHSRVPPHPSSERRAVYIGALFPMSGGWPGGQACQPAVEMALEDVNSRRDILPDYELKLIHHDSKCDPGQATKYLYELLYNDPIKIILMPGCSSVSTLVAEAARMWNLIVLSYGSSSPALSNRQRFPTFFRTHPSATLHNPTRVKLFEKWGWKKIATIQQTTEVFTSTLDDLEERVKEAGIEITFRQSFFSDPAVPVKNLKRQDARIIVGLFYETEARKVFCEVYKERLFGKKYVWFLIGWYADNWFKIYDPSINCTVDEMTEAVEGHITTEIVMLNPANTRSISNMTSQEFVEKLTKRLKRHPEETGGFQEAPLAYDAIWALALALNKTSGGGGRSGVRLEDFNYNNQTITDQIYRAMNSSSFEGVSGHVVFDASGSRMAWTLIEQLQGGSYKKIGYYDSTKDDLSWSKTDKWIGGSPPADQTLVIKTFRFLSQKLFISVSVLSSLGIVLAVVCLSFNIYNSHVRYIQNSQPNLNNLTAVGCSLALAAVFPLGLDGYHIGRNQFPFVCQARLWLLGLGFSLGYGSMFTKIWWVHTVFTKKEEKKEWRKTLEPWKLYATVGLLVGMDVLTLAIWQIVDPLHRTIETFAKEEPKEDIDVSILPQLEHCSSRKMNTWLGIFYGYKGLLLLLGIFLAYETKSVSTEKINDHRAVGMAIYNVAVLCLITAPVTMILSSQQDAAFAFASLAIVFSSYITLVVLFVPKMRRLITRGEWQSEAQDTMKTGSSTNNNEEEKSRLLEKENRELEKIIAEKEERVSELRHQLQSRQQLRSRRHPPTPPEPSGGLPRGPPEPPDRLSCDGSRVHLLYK
T3 sequence (O75899 42-941 partner): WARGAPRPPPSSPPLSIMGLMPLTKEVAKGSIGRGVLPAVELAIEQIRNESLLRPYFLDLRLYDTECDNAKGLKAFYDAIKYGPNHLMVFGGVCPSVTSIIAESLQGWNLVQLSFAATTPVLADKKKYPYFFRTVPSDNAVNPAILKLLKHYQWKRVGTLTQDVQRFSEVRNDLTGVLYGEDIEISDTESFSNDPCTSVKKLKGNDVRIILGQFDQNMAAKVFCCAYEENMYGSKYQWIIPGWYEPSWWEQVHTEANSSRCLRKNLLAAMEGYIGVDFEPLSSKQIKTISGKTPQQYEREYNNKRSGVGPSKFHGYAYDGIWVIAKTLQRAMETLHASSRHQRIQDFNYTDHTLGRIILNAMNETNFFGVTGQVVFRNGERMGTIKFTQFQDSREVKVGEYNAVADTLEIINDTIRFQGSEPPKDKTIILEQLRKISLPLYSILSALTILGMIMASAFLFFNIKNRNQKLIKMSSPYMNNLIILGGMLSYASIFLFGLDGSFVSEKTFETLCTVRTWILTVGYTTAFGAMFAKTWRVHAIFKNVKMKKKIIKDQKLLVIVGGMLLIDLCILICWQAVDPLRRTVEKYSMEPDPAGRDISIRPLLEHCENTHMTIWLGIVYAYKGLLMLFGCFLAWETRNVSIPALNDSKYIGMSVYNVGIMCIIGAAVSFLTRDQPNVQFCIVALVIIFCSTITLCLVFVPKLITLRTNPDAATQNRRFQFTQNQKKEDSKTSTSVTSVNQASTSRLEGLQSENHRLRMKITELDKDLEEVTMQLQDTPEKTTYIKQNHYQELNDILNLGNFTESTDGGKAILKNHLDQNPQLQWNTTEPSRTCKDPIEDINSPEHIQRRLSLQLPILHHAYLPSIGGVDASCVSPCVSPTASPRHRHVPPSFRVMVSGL
Procedure: as §1
(§3) All receptor assays were performed exactly as described in Example 1. Functional assays of all GABAA, NMDA (GluN2A-GluN2D) and AMPA (GluA2) receptor subunits were performed by SB Drug Discovery as a part of their CNS discovery panel using FLIPR technology. All compounds were tested at 7 concentrations in triplicate and EC50/IC50 was determined where applicable. Functional GABAB assay was performed by Eurofins Discovery (Cerep) using Ca^2+-dependent fluorimetry in RBL cells expressing human GABAB (B1/B2) receptor. All compounds were tested at a single concentration of 100 uM in triplicate. Nonspecific AMPA, kainate and NMDA binding assays were performed by Eurofins Discovery (Cerep) using rat cerebral cortex membranes and radiolabeled [^3H]AMPA, [^3H]kainic acid and [^3H]CGP 39653, respectively. All compounds were tested at a single concentration of 100 uM in triplicate. mGluR1, mGluR2, mGluR5 and GABAB binding assays were performed by Eurofins Discovery. All compounds were tested at a single concentration of 100 uM in triplicate.

[7] = target: T4, GABAB (B1a/B2) (Homo sapiens, UniProt Q9UBS5); test: radioligand binding assay
T4 construct: host or cells: CHO-K1
T4 sequence (Q9UBS5 15-961 limits assumed): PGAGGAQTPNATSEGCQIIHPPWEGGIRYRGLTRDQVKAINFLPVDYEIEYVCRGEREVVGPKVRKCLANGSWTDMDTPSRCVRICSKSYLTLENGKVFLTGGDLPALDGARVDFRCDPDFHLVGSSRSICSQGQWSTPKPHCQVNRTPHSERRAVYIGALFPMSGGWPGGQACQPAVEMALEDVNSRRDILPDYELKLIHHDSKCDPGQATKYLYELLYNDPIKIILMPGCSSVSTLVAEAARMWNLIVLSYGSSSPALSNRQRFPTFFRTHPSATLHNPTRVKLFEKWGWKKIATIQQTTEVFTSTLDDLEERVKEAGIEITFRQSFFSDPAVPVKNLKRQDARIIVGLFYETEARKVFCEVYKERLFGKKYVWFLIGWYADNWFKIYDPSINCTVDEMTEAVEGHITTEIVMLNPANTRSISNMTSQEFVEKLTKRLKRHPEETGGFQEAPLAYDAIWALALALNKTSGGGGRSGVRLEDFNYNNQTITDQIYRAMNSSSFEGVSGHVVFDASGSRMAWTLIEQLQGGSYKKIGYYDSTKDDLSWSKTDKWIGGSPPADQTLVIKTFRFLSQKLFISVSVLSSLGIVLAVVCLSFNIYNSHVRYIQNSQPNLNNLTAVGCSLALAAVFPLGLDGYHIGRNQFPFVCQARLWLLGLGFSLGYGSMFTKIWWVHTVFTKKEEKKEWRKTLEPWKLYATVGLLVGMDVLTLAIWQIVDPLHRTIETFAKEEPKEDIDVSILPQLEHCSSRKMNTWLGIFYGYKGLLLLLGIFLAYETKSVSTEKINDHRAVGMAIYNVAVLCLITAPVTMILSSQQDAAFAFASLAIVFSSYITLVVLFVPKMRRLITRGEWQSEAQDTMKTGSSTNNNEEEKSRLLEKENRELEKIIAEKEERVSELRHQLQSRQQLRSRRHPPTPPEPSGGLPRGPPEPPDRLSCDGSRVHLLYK
T4 sequence (O75899 42-941 partner): as the sequence (O75899 42-941 partner) above
Procedure: as §1, §3

[8] = test system: mouse cerebral synaptosomes; test: Potassium-induced neurotransmitter release assay; format: cell-based; details: preloaded with 100 μM for 15 min at 37° C., high-potassium depolarization
Procedure: To each tube, 2.5 μL of a test compound solution (final concentration 100 μM) in Buffer KRP or Buffer KRP alone were added. Samples were incubated for 15 min at 37° C., briefly chilled on ice, and then immediately centrifuged and washed twice with Buffer KRP. The resulting pellets were then resuspended in either Buffer KRP (500 μL) or Buffer K-KRP (500 μL). Samples were immediately centrifuged or incubated for 5, 10 or 15 min at 37° C., then centrifuged and washed with Buffer KRP. Resulting pellets were resuspended in 400 μL of 60% ACN containing 2.5 μM Glu-d5 and 2.5 μM Gln-d5 as internal standards.
Synaptosome uptake and high potassium-induced release assays were performed as described in Example 1. Uptake assays used 250 μL aliquots of the synaptosome suspension transferred to a pre-chilled 0.8 mL 96 well plate. 5 μL of a test compound solution (0.5 mM; final concentration: 10 μM to compare directly to our previous work was added to each well and incubated at 0° C. or 37° C. After 10, 20 or 30 min, samples were chilled on ice and immediately sedimented (2,500 g for 15 min at 4° C.) and washed with Buffer S (0.5 mL, ×2). Resulting pellets were resuspended in 200 μL of 60% ACN containing 5 μM GABA-d6 and stored at −80° C. until analysis. Potassium-induced release assay used 500 μL aliquots of the synaptosome suspension transferred to pre-chilled microcentrifuge tubes. 2.5 μL of a test compound solution (20 mM; final concentration: 100 μM) in Buffer KRP was added to each tube and incubated for 15 min at 37° C., briefly chilled on ice, and then immediately sedimented (8,000 g for 4 min at 4° C.) and washed with Buffer KRP, followed by centrifugation, twice. The resulting pellets were resuspended in 500 μL of Buffer KRP or Buffer K-KRP and incubated for 5, 10 or 15 min at 37° C., sedimented (8,000 g for 4 min at 4° C.), and washed with Buffer KRP. Resulting pellets were resuspended in 400 μL of 60% ACN containing 2.5 μM GABA-d6 as internal standard and stored at −80° C. until analysis.

T1 sequence (Q14416 19-872): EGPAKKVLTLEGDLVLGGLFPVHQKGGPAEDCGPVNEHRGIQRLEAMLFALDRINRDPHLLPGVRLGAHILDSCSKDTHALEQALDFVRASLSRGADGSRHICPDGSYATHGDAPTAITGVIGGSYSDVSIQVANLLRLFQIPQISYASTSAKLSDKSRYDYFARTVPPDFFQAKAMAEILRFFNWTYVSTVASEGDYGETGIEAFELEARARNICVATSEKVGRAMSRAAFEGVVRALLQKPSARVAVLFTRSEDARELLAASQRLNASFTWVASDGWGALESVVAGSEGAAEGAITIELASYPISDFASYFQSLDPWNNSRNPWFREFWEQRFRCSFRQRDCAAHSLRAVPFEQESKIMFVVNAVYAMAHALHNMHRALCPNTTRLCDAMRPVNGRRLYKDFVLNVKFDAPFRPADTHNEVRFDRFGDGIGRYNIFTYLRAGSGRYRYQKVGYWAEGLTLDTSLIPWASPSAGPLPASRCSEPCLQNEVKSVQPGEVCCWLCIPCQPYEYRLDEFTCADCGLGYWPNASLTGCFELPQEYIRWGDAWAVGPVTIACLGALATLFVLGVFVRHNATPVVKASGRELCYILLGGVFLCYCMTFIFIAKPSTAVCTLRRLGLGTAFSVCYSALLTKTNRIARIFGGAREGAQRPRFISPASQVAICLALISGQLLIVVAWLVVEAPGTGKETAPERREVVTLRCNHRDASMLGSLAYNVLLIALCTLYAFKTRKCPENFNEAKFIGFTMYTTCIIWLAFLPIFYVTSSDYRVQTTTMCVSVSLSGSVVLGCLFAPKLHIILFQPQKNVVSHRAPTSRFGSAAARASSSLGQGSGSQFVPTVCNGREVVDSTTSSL

C[C@@](N)(CCC(=O)O)C(=O)O [(R)-2MeGlu, (R)-2-methylglutamic acid]
inhibition at 100 µM [1]: -3% | % of radioligand binding inhibition [2]: 8% | % of radioligand binding inhibition [3]: −3% | % of radioligand binding inhibition [4]: 18% | substrate of GS (amidation to 2MeGln) [5]: not a substrate | inhibition at 100 µM [6]: 13% | inhibition at 100 µM [7]: 18% | potassium-induced release from synaptosomes [8]: not significantly altered by depolarization

C[C@](N)(CCC(=O)O)C(=O)O [(S)-2MeGlu, (S)-2-methylglutamic acid]
inhibition at 100 µM [1]: 25% | % of radioligand binding inhibition [2]: 3% | % of radioligand binding inhibition [3]: 6% | % of radioligand binding inhibition [4]: 20% | substrate of GS (amidation to 2MeGln) [5]: substrates | inhibition at 100 µM [6]: 14% | inhibition at 100 µM [7]: 6% | potassium-induced release from synaptosomes [8]: released upon depolarization
